Here are results for 2 molecules from patent US5942501A, “Cyclodextrin derivative complex” (priority 1996, dated 1999).

A short description of series [1]: Solubility in water of salicylic acid, cyclodextrins and cyclodextrin inclusion complexes. Format: physicochemical. The following applies: complexed with cyclodextrin.
The conditions of series [2]: cited from earlier work.

Molecules are shown by their SMILES.

For the molecule `OCCOc1ccccc1` [phenoxyethanol], the “solubility in complexed form (in words)” value in series [1] is “more soluble in complexed form”. As to `O=C(O)c1ccccc1O` [salicylic acid], the “solubility of salicylic acid in water” value in series [2] (ambient temperatures, uncomplexed) is given as “about 0.3%”. In series [2] (water or mixed aqueous solvent, starting value before complexation), the “solubility of S.A. in water or mixed aqueous solvent (uncomplexed)” value is on record as “about 0.3%”.
